The results in this text go back to patent publication EP1458697B1, “BIPHENYLMETHYL-THIAZOLIDINEDIONES AND ANALOGUES AND THEIR USE AS PPAR-GAMMA ACTIVATORS” (Galderma Research & Development, S.N.C., priority 2001, dated 2003).

Bounds are passed on as bounds.

Assay [1] deals with T1, récepteur chimère Gal-PPARα (Homo sapiens, UniProt Q07869).
T1 sequence (Q07869 167-468): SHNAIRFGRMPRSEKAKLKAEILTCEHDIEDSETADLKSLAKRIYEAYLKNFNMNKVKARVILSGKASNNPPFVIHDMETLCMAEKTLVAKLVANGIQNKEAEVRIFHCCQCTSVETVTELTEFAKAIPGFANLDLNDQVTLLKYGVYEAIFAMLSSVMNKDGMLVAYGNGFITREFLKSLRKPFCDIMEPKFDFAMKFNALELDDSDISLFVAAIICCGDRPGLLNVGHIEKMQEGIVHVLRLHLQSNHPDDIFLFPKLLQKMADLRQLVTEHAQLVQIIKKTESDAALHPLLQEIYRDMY
The assay is described as follows: Transactivation test, same protocol with chimeric receptor Gal-PPARα. It is filed as cell-based. The conditions noted are these: Hela cells; for activation at 1 µM: 24 h, compound at 1 microM, percent of activation relative to reference agonist (Wy 14643 = 100%), read-out: % d'activation (à 1 microM) PPARα; for AC50: concentration giving 50% activation relative to reference agonist, read-out: AC50 (en nM) PPARα. The text has this: De préférence, l'activateur des récepteurs de type PPARγ est spécifique, c'est à dire qu'il présente un rapport du pourcentage d'activation des récepteurs PPARγ, au pourcentage d'activation des récepteurs PPARα (calculé par rapport à un composé de référence, le Wy 14643, activant les PPARα de 100%) supérieur ou égal à 3. De préférence, ce rapport est supérieur ou égal à 5 et plus avantageusement supérieur ou égal à 10.
(§1) La capacité des molécules à activer et/ou inhiber les récepteurs PPARγ est évaluée à partir de cellules Hela transfectées de manière stable avec le récepteur chimère Gal-PPARγ (LBD).
(§2) Des plaques 96 puits sont ensemencées à raison de 10 000 cellules /100 µl / puit dans du milieu DMEM 10% SDL puis placées 24 heures à 37°C, 7% CO2.
(§3) Pour déterminer l'activité agoniste PPARγ, les cellules sont ensuite traitées par ajout de 5 µl puit des molécules à tester à la concentration finale de 1 µM. Des cellules sont également traitées en parallèle avec un agoniste de référence, l'acide (-)-3-{4-[2-(Benzooxazol-2-yl-methyl-amino)-ethoxy]-phenyl}-2-ethoxy-propionique, 1 µM.
(§4) Après une nouvelle incubation de 24 heures à 37°C, 7% CO2, un dosage de la luciférase est effectué à l'aide du kit « Steady-Glo Luciferase Assay System » de Promega. Le comptage de la luminescence se fait sur un lecteur de microplaque Microbéta Trilux (Wallac).
(§5) L'activité agoniste du produit testé sera exprimée en pourcentage d'activation par rapport au témoin agoniste l'agoniste de référence à 1 µM.
En appliquant ce même protocole avec le récepteur chimère Gal-PPARα, on peut mesurer l'activité agoniste des composés vis à vis des récepteurs PPAR alpha et ainsi la comparer avec celui du récepteur PPARγ.
(§6) L'AC50, exprimée en nM, est déterminée comme la concentration permettant d'obtenir 50% d'activation du signal basal par rapport à l'agoniste de référence.

The target in assay [2] is T2, récepteur chimère Gal-PPARγ (LBD) (Homo sapiens, UniProt P37231).
T2 construct: le récepteur chimère Gal-PPARγ (LBD); Gal (fusion partner); expressed in transfected cells; host or cells: HeLa cells, stably transfected
T2 sequence (P37231 238-503 limits assumed): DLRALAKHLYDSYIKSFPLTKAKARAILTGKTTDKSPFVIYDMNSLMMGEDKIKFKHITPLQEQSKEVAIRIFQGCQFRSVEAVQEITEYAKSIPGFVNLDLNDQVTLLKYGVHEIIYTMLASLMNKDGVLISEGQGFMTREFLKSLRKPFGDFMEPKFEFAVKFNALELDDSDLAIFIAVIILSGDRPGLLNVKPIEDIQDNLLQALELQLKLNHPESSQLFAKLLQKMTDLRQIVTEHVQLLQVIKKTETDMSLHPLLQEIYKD
The assay is described as follows: Transactivation test, Hela cells stably transfected with chimeric receptor Gal-PPARγ (LBD), luciferase readout. Format: cell-based. As to conditions: M-HeLa, 24 h, compound at 1 microM, percent of activation relative to reference agonist at 1 µM, read-out: % d'activation (à 1 microM) PPARγ. The protocol: L'activité agoniste vis à vis des récepteurs PPARγ des composés selon l'invention peut être évaluée par des tests de transactivation.
as §1, §2, §3, §4, §5, §6

Regarding `CN(Cc1cccc(-c2ccc(CC3SC(=O)NC3=O)cc2)c1)C(=O)c1cccc2ccccc12` (centres unmarked) [Composé de l'exemple 5, N-[4'-(2,4-dioxo-thiazolidin-5-ylmethyl)-biphenyl-3-ylmethyl]-N-methyl-naphthalene-1-carboxamide], in assay [1], the activation at 1 µM turned out to be 26.6% and the half-maximal activity concentration (AC50) is > 50000 nM.

Take `CN(Cc1cccc(-c2ccc(CC3SC(=O)NC3=O)cc2)c1)C(=O)c1ccc2cc(O)ccc2c1` (centres unmarked) [Composé de l'exemple 17, 6-Hydroxy-N-[4'-(2,4-dioxo-thiazolidin-5-ylmethyl)-biphenyl-3-ylmethyl]-N-methyl-naphthalene-2-carboxamide]: the activation at 1 µM in assay [1] came to 15.1%; in assay [2] it was 96.1%. The half-maximal activity concentration (AC50) in assay [1] is > 50000 nM.

Take `CN(Cc1cccc(-c2ccc(CC3SC(=O)NC3=O)cc2)c1)C(=O)c1ccc(-c2ccccc2)cc1` (centres unmarked) [Composé de l'exemple 10, N-[4'-(2,4-dioxo-thiazolidin-5-ylmethyl)-biphenyl-3-ylmethyl]-N-methyl-biphenyl-4-carboxamide]: in assay [1], the activation at 1 µM was determined as 13.8% and the half-maximal activity concentration (AC50) was > 50000 nM. For the same molecule, in assay [2], the activation at 1 µM worked out at 183%.

In the case of `CN(Cc1cccc(-c2ccc(CC3SC(=O)NC3=O)cc2)c1)C(=O)COc1ccccc1` (centres unmarked) [Composé de l'exemple 7, N-[4'-(2,4-Dioxo-thiazolidin-5-ylmethyl)-biphenyl-3-ylmethyl]-N-methyl-2-phenoxy-acetamide], the activation at 1 µM in assay [1] came out at 37.8%; in assay [2] it was 97.2%.

As to `CCO[C@@H](Cc1ccc(-c2cccc(CN(C)C(=O)c3ccc4cc(OCOCCOC)ccc4c3)c2)cc1)C(=O)O` [Composé de l'exemple 23, Acide (S)-2-Ethoxy-3-{3'-[({1-[6-(2-methoxy-ethoxymethoxy)-naphthalen-2-yl]-methanoyl}-methyl-amino)-methyl]-biphenyl-4-yl}-propionique], the activation at 1 µM in assay [1] stood at 11.9%; in assay [2], 90%.

Turning to `CN(Cc1cccc(-c2ccc(CC3SC(=O)NC3=O)cc2)c1)C(=O)CCC1CCCC1` (centres unmarked) [Composé de l'exemple 4, 3-Cyclopentyl-N-[4'-(2,4-dioxo-thiazolidin-5-ylmethyl)-biphenyl-3-ylmethyl]-N-methyl-propionamide], in assay [1], the activation at 1 µM is 39.8% and the AC50 is > 50000 nM.

In the case of `COC(=O)CCCCCCCCC(=O)N(C)Cc1cccc(-c2ccc(CC3SC(=O)NC3=O)cc2)c1` (centres unmarked) [Composé de l'exemple 2, 9-{[4'-(2,4-Dioxo-thiazolidin-5-ylmethyl)-biphenyl-3-ylmethyl]-methyl-carbamoyl}-nonanoatede méthyle], the activation at 1 µM in assay [1] amounted to 13.7%.

`CCO[C@@H](Cc1ccc(-c2cccc(CN(C)C(=O)CCCCC(=O)c3ccccc3)c2)cc1)C(=O)O` [Composé de l'exemple 20, Acide (S)-2-Ethoxy-3-(3'-{[methyl-(6-oxo-6-phenyl-hexanoyl)-amino]-methyl}-biphenyl-4-yl)-propionique]: in assay [1], the activation at 1 µM came to 41.9% and the AC50 was > 50000 nM. In assay [2], the activation at 1 µM was found to be 114%.

Regarding `CN(Cc1cccc(-c2ccc(CC3SC(=O)NC3=O)cc2)c1)C(=O)C12CC3CC(CC(C3)C1)C2` (centres unmarked) [Composé de l'exemple 9, N-[4'-(2,4-dioxo-thiazolidin-5-ylmethyl)-biphenyl-3-ylmethyl]-N-methyl-adamantane-1-carboxamide], the activation at 1 µM in assay [1] was determined as 4.3%; in assay [2] it was 106%.

With `CN(Cc1cccc(-c2ccc(CC3SC(=O)NC3=O)cc2)c1)C(=O)CCCCC(=O)c1ccccc1` (centres unmarked) [Composé de l'exemple 12, N-[4'-(2,4-dioxo-thiazolidin-5-ylmethyl)-biphenyl-3-ylmethyl]-N-methyl-6-oxo-6-phenyl-hexanamide], in assay [1], the activation at 1 µM was found to be 12.3% and the half-maximal activity concentration (AC50) is > 50000 nM. The activation at 1 µM in assay [2] amounted to 168%.

In the case of `CN(C)c1ccc(NC(=O)N(C)c2cccc(-c3ccc(CC4SC(=O)NC4=O)cc3)c2)cc1` (centres unmarked) [Composé de l'exemple 22, 3-(4-Dimethylamino-phenyl)-1-[4'-(2,4-dioxo-thiazolidin-5-ylmethyl)-biphenyl-3-yl]-1-methyl-urée], the activation at 1 µM in assay [1] was -3.9%; in assay [2], 108%.

Take `COCCOCOc1ccc2cc(C(=O)N(C)Cc3cccc(-c4ccc(CC5SC(=O)NC5=O)cc4)c3)ccc2c1` (centres unmarked) [Composé de l'exemple 16, 6-(2-Methoxy-ethoxymethoxy)-N-[4'-(2,4-dioxo-thiazolidin-5-ylmethyl)-biphenyl-3-ylmethyl]-N-methyl-naphthalene-2-carboxamide]: in assay [1], the activation at 1 µM stood at 22.9% and the AC50 is > 50000 nM. Moreover, in assay [2], the activation at 1 µM stood at 93.3%.

`COC(=O)c1ccc(C(=O)N(C)Cc2cccc(-c3ccc(CC4SC(=O)NC4=O)cc3)c2)cc1` (centres unmarked) [Composé de l'exemple 3, N-[4'-(2,4-Dioxo-thiazolidin-5-ylmethyl)-biphenyl-3-ylmethyl]-N-methyl-terephthalamatede méthyle]: in assay [1], the activation at 1 µM was determined as 22.3% and the AC50 is > 50000 nM.

Take `CN(Cc1cccc(-c2ccc(CC3SC(=O)NC3=O)cc2)c1)C(=O)c1ccc2ccccc2c1` (centres unmarked) [Composé de l'exemple 6, N-[4'-(2,4-dioxo-thiazolidin-5-ylmethyl)-biphenyl-3-ylmethyl]-N-methyl-naphthalene-2-carboxamide]: in assay [1], the activation at 1 µM is 7.9% and the AC50 is > 50000 nM.

Turning to `CSc1ccc(C(=O)N(C)Cc2cccc(-c3ccc(CC4SC(=O)NC4=O)cc3)c2)cc1` (centres unmarked) [Composé de l'exemple 18, N-[4'-(2,4-Dioxo-thiazolidin-5-ylmethyl)-biphenyl-3-ylmethyl]-N-methyl-4-methylsulfanyl-benzamide], in assay [1], the activation at 1 µM worked out at 37.3% and the concentration at half-maximal activity (AC50) is > 50000 nM. Besides, the activation at 1 µM in assay [2] turned out to be 90.7%.

For `CN(Cc1cccc(-c2ccc(CC3SC(=O)NC3=O)cc2)c1)C(=O)c1ccc(S(C)(=O)=O)cc1` (centres unmarked) [Composé de l'exemple 14, N-[4'-(2,4-Dioxo-thiazolidin-5-ylmethyl)-biphenyl-3-ylmethyl]-4-methanesulfonyl-N-methyl-benzamide], the values for the activation at 1 µM in assay [1] and in assay [2] were 19% and 76.7%, respectively.

With `CCO[C@@H](Cc1ccc(-c2cccc(CN(C)C(=O)c3ccc(-c4ccccc4)cc3)c2)cc1)C(=O)O` [Composé de l'exemple 19, Acide (S)-3-(3'-{[(1-Biphenyl-4-yl-methanoyl)-methyl-amino]-methyl}-biphenyl-4-yl)-2-ethoxy-propionique], in assay [1], the activation at 1 µM is 100% and the half-maximal activity concentration (AC50) was > 50000 nM. In addition, the activation at 1 µM in assay [2] is 102%.

For the molecule `CN(C(=O)Nc1ccc2ccccc2c1)c1cccc(-c2ccc(CC3SC(=O)NC3=O)cc2)c1` (centres unmarked) [Composé de l'exemple 21, 1-[4'-(2,4-Dioxo-thiazolidin-5-ylmethyl)-biphenyl-3-yl]-1-methyl-3-naphthalen-2-yl-urée], the activation at 1 µM in assay [1] is -4.2%; in assay [2], 104%.

On to `CN(Cc1cccc(-c2ccc(CC3SC(=O)NC3=O)cc2)c1)C(=O)c1cccn1C` (centres unmarked) [Composé de l'exemple 8, N-[4'-(2,4-dioxo-thiazolidin-5-ylmethyl)-biphenyl-3-ylmethyl]-N-methyl-1-Methyl-1H-pyrrole-2-carboxamide], for which the activation at 1 µM in assay [1] was 33.6%; in assay [2] it was 97.2%.

Usually AC50 stands for the concentration giving half of the maximal activity seen.
